Columns and labels:
Assay type in all cases: biochemical
NSD2 = molecular target: T1, NSD2 (Homo sapiens, UniProt O96028); experiment: HMT panel selectivity: NSD2
T1 sequence (O96028 1-1365): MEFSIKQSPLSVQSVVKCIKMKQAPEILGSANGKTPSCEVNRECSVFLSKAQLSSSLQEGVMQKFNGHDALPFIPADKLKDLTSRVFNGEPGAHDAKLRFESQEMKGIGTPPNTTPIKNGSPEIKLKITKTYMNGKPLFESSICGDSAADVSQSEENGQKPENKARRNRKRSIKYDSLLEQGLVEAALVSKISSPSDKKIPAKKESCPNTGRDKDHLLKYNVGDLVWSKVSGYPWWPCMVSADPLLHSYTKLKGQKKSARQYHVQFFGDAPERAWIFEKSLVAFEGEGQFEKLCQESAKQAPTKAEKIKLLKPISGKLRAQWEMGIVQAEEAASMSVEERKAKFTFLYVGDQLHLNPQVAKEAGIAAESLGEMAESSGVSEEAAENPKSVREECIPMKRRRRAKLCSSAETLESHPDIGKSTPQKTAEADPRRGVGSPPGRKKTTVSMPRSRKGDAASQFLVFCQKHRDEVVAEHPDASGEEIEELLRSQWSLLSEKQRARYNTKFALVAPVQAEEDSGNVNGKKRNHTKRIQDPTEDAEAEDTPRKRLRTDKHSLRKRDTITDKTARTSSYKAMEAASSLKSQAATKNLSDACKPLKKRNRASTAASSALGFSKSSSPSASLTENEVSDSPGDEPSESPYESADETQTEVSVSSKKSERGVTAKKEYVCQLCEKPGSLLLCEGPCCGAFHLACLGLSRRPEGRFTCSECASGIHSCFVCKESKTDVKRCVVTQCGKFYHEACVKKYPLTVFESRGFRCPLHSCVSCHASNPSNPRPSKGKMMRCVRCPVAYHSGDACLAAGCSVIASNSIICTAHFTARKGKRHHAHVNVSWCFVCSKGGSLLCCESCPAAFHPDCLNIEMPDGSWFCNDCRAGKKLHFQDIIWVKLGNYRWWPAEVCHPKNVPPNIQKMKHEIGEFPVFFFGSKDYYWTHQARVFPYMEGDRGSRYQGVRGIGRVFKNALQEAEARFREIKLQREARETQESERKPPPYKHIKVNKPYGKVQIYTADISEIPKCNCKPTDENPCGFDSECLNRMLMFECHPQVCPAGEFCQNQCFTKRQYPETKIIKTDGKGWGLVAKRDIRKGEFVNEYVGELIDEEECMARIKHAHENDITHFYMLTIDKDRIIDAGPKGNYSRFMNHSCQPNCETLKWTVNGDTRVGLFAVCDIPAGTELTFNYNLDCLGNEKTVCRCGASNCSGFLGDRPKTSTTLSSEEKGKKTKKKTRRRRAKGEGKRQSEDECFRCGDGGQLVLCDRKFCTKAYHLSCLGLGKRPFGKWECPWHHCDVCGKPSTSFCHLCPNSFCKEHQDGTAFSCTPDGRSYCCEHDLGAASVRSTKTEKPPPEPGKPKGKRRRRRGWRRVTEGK
Method: (§1) Note: for EZH2, EZH2/EED/SUZ12/RBAP48/AEBP2 was used in the assay; for EZH1, EZH1/EED/SUZ12/RBAP48/AEBP2 was used in the assay; for MLL, MLL/WDR5/RBBP5/ASH2L/ was use in the assay. a, H3K27me0 peptide was used as substrate for both EZH2 and EZH1 activity; b, H3K27me1 peptide was used as substrate for both EZH2 and EZH1 activity. All HMT reactions were performed as described previously. ref: Proc Natl Acad Sci U S A. 2012 Dec 26;109(52):21360-5.

SMYD2 = SMYD2 (Homo sapiens, UniProt Q9NRG4); experiment: HMT panel selectivity: SMYD2
Chain of SMYD2 (Q9NRG4 whole entry, species assumed): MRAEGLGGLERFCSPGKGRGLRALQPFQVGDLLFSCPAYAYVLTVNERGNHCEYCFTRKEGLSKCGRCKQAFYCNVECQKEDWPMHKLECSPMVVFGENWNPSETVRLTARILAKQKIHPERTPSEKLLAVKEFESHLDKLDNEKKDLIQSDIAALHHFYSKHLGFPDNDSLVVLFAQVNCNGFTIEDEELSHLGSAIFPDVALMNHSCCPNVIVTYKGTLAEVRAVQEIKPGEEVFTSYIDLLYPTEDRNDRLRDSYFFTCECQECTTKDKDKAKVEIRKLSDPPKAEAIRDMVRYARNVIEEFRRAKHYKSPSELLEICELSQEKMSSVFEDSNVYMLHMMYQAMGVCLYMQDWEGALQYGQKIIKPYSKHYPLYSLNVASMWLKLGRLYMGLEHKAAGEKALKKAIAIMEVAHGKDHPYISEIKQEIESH
Method: as §1

Suv39H2 = Suv39H2 (Homo sapiens, UniProt Q9H5I1); experiment: HMT panel selectivity: Suv39H2
Chain of Suv39H2 (Q9H5I1 whole entry, species assumed): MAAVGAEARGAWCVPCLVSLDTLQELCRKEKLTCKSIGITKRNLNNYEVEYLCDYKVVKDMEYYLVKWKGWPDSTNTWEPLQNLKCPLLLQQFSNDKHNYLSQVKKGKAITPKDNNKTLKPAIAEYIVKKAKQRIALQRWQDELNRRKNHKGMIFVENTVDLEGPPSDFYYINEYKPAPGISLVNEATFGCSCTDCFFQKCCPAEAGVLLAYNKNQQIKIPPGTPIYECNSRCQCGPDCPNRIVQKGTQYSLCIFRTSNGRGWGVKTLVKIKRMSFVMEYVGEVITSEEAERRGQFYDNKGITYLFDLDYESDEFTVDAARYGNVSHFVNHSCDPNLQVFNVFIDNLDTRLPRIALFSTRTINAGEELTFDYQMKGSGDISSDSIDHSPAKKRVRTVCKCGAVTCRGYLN
Method: as §1

NSD3 = molecular target: T2, NSD3 (Homo sapiens, UniProt Q9BZ95); experiment: HMT panel selectivity: NSD3
T2 sequence (Q9BZ95 1-1437): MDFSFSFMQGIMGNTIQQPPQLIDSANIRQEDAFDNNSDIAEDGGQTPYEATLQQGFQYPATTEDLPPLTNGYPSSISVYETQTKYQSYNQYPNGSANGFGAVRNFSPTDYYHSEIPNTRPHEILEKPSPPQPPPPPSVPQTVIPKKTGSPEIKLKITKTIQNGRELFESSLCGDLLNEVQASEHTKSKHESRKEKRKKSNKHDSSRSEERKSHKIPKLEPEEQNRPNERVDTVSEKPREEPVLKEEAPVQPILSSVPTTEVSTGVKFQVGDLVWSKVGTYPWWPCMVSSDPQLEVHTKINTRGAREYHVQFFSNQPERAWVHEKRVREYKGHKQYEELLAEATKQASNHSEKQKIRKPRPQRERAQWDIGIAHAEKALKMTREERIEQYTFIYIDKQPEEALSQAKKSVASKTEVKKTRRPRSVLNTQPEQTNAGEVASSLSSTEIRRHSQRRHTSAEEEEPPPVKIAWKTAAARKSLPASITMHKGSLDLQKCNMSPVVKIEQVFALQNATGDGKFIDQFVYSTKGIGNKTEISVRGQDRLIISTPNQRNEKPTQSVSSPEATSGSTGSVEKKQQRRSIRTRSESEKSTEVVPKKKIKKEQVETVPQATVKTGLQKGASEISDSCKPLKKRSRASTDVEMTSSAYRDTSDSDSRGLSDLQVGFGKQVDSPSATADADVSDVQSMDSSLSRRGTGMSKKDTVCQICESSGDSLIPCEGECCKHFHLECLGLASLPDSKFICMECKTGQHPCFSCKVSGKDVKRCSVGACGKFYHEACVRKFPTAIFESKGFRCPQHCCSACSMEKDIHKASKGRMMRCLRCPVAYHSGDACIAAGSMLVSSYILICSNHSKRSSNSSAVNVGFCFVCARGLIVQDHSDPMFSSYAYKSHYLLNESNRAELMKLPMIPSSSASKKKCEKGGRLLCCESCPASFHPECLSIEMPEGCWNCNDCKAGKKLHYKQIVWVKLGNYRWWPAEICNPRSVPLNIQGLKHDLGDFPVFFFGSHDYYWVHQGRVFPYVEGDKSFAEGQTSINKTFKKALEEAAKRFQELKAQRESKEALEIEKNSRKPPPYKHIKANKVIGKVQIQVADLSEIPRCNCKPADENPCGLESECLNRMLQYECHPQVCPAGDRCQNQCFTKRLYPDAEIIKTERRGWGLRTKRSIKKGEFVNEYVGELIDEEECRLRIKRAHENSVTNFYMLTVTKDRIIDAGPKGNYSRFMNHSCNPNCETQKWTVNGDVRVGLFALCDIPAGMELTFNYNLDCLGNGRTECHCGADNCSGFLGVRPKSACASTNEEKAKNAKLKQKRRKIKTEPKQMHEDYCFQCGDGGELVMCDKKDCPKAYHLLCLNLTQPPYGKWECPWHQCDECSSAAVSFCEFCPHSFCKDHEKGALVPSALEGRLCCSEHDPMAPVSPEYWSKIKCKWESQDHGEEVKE
Method: as §1

Measured: IC50

N#Cc1c2c(c3nncn3c1NCc1ccco1)CN(Cc1ccccc1)CC2 [EED162]
> 100 µM: all assays above

COc1cccc(CC2CC3Cc4c(cccc4OC)CC3N(C)C2)c1 (centres unmarked) [EED210]
> 100 µM: all assays above

COc1cc(-c2cc3n(c(=N)c2C#N)CCc2cc4c(cc2-3)OCO4)ccc1OC(C)C [EED396]
> 100 µM: all assays above

Cc1cc(C)n(-c2cc(N3CCc4ccccc4C3)ccc2[N+](=O)[O-])n1 [EED666]
> 100 µM: all assays above

COc1ccccc1CN1CC(c2cn(C)c3ccccc23)C(N(C)C)C1 (centres unmarked) [EED709]
> 100 µM: all assays above
